Legend:
[1] = pH-titration at constant ionic strength; format: physicochemical; settings: pH-titration in both directions
Description: For each compound, pH-titrations in both directions were carried out at constant ionic strength. All compounds were completely […] between pH 7.2 and 7.8 for the DT-series and 7.7 and 8.0 for the TT-series, pointing to the availability of all potential donor electrons derived from carboxyl oxygens--for complex or chelate formation similar to EDTA (pH 8.8) and DTPA (pH 6.7), the two model compounds known for their ability to chelate actinides and some other metals.

[2] = known chelators; cited from earlier work
[3] = Distribution of 210Pb between water and chloroform after adding chelator; format: physicochemical
Description: In this example the ability of DMS(C8)2, from Example 17, and C12 DMS Et2, from Example 16 to move ^210 Pb between lipid and aqueous phases of chloroform and water mixture was measured. This would be an indicator of the ability of the chelator and the chelate-metal complex to penetrate lipophilic barriers.
^210 Pb was dissolved in water. C12 DMS Et2 and DMS(C8)2 were added and mixed for 10 minutes with chloroform. The solutions were mixed every several hours. The phases separated and the percentage of ^210 Pb found in the chloroform phase as a function of time was determined.

[4] = test system: intestinal tract; settings: dogs; cited from earlier work
[5] = In vitro Pb binding and lipophilic character of C12 DMSA; format: physicochemical
Excerpt: As with the PACA's, the chain length could be changed and other functional groups could be added.

[6] = Effect of 1 week oral feeding of TT-based chelons on total body and liver content of 241Am (Table 1); format: in vivo, rats; set-up: % Reduction in liver 241Am (Compared with controls): concentration or dose not given beside the values; settings: for % Reduction in liver 241Am (Compared with controls): 1 week oral feeding, determined at necropsy; for % Reduction in total body 241Am (Before vs after chelon feeding): po, 168 h
Description: (§1) To test the ability of complexed chelons to move across membrane and cellular barriers, an assay has been developed that measures the intestinal passage of the chelons in closed duodenal segments in situ over a 3 hour period. […] Although there were differences in the rate at which some of these compounds moved through this tissue barrier, all were effective in Am removal in vivo as set forth in the following Table 1.
Effect of 1 week feeding of TT-based chelons on total
body and liver content of ^241 Am. Am was allowed to
incorporate for 1 week prior to oral chelon feeding.
Total body counts were taken before and after chelon feeding.
Liver values were determined at necropsy.

[7] = Reduction of 241Am whole body and organ burden by oral chelon administration (Table 2, Example 12); format: in vivo, Sprague-Dawley rats; settings: 10 days oral treatment, 50 micro-mole/rat/day, vs controls; for % Reduction of 241Am, both femora / % Reduction of 241Am, carcass / % Reduction of 241Am, liver / % Reduction of 241Am, whole body: p <0.001 (C12TT, C22TT); for % Reduction of 241Am, one kidney: p >0.1 (C12TT, C22TT)
Description: ^a) Reduction = 100 - (% of initial activity in treated rats at
death/% of initial activity in controls at death); 9 Rats/Group; 10 Days
(§2) In vivo studies of the compounds of the present invention were performed. The effect of oral treatment on rats given an injection of 241Am was studied by a) comparing the reduction of an internal burden of 241Am from rats fed C12 TT or C22 TT with the natural biological retention of ^241 Am under condition of no chelation treatment; b) examination of histologic sections of tissues obtained from treated rats and c) by comparing the relative weight gain of treated rats and controls during the chelon feeding period. The effect of feeding C12 TT or C22 TT on the retention of ^241 Am was tested in 3 groups of 9 rats each. Sprague-Dawley rats (Simonson Labs., Gilroy, Cailf.), aged 60 days, were used in these studies. The animals were housed in groups of 3 or 4 until treatment was initiated. ^241 Am was given via the jugular vein as a single injection in citrate buffer of pH 3.5. One week later, rats were transferred to individual cages and feeding of the chelator was initiated. This delay allowed the nuclide to be incorporated firmly in the target organs, mostly liver and bone.
(§3) The first group served as untreated controls, the second and third groups received 50 micro-mole of C12 TT or C22 TT/rat or about 200 micro-mole/kg of body weight, respectively, in their daily ration of 25 g of rodent chow. On days 1 and 7 after injection and on days 3, 6 and 10 of chelation treatment, the total body retention of ^241 Am was measured using a whole body counter. The animals were necropsied after 10 days of oral chelation therapy and the femora, liver, 1 kidney, viscera and carcass with integument were counted for ^241 Am content. The other kidney and a sample of the small and large intestine were prepared for histological evaluation. Whole body retentions as a function of time were evaluated. Terminal organ retentions were measured after necropsy only. The reduction in whole body or organ retention due to oral chelation treatment was expressed as: [formula] both taken at the same time after treatment initiation. Results are shown in Table 2 above, which is incorporated into this Example by reference.

[8] = test system: intestinal mucosa (duodenum and proximal jejunum); assay: Intestinal tied-loop passage of 241Am complexes in situ; format: in vivo, rats; settings: 241Am complex, 3 hours
Description: as §1
The ability of Am-citrate and ^241 Am-C12 TT to cross the intestinal mucosa in situ was measured using an intestinal tied-loop technique. Rats were anesthetized and a 18-20 cm segment of the duodenum and proximal jejunum was isolated and rinsed with cold saline. The most proximal portion of this segment was 1 cm distal to the pyloric junction. With the stability of the ^241 Am-complex established, known quantities of the corresponding complexes were introduced in vivo directly into the isolated and ligated segment. The animals remained anesthetized to allow for passage of the lipophilic compounds through the intestinal barrier into the body. After 3 hours, the rats were euthanized, the ligated section of the gut was excised and its lumen flushed with saline. Lumen wash, cleaned gut section, combined viscera, liver and the remaining carcass were counted separately. The 241Am found in the various parts was considered as representative of the distribution of the chelon.

[9] = test system: red cells; assay: Crenation-hemolysis test in fresh canine blood; format: cell-based; settings: Ca chelate, 10 and 20 mg, 37° C., 1 hour and 4 hours
Description: Toxicity studies were performed as indicators of early gross toxicity. […] Therefore, the crenation-hemolysis tests were repeated with the highly purified C12 -and C22 -PACAs. Two ml aliquots of fresh canine blood, drawn with a heparinized syringe, were incubated at 37° C. with an equal volume of a 0.1M Tris-buffer containing 10 and 20 mg, respectively, of the Ca chelate of the two compounds whose osmolarity had been adjusted to 270-300 mOsm. After 1 hour and 4 hours of incubation, respectively, blood smears were prepared and examined microscopically and cells were sedimented.

[10] = Weight gain and histology of rats during oral chelon feeding; format: in vivo, Sprague-Dawley rats; settings: 10 days oral feeding; controls 61.1+8.8 g
Description: as §2, with “The animals were housed in groups of 3 or 4 until treatment was initiated. ^241 Am was given via the jugular vein as a single injection in citrate buffer of pH 3.5. One week later, rats were transferred to individual cages and feeding of the chelator was initiated. This delay allowed the nuclide to be incorporated firmly in the target organs, mostly liver and bone.” left out
as §3, with “The other kidney and a sample of the small and large intestine were prepared for histological evaluation.” left out, “The reduction in whole body or organ retention due to oral chelation treatment was expressed as: [formula] both taken at the same time after treatment initiation. Results are shown in Table 2 above, which is incorporated into this Example by reference.” left out

[11] = Elimination of intravenously injected 241Am-complexed chelons by whole body counting and excreta; format: in vivo; settings: intravenous
Description: In this example, animals were injected intravenously with ^241 Am-complexed C12 TT or K11 TT (K= terminally carboxylated alkyl series) and the rates of elimination from the body were determined. This was determined by whole body counting and counting of the excreta, both urine and feces. FIG. 2 illustrates the fraction of total body retention of the labeled chelating agents as a function of time after exposure. […] This example illustrates that modified polyaminocarboxylic acids have different organ targeting properties and different excretion pathways.

[12] = Reduction of 239Pu organ burden by oral administration of C22 TT (Table 5, Example 14); format: in vivo, Sprague-Dawley rats; settings: 10 days in diet, starting 14 days after Pu, vs untreated
Description: Twelve young adult male rats (Sprague-Dawley rats from Simonsen Labs, Gilroy, Calif.) were given ^239 Pu by intravenous injection. Fourteen days later 6 of the animals were fed C22 TT in the diet while the other 6 animals were not fed the compound and served as controls. The delay in beginning the chelation treatment allowed the nuclide to be incorporated firmly in the target organs. After 10 days of feeding, the animals were sacrificed and the Pu content in 'select tissues was determined by liquid scintillation counting.
*100 × (1Pu in treated animals/Pu in untreated, control animals)

[13] = Solution behaviour / micelle formation of C22 TT; format: physicochemical

## O=C(O)CN(CCN(CC(=O)O)CC(=O)O)CC(=O)O [EDTA, ethylenediaminetetraacetic acid]
[1]
  pH of complete protonation: 8.8
[2]
  effectiveness in removing lead: effective in removing lead in the blood, but is not effective in removing lead which has penetrated the cells

## O=C(O)CN(CCN(CC(=O)O)CC(=O)O)CCN(CC(=O)O)CC(=O)O [DTPA, diethylenetriamine pentaacetic acid]
[1]
  pH of complete protonation: 6.7

## CCCCCCCCOC(=O)C(S)C(S)C(=O)OCCCCCCCC (centres unmarked) [DMS(C8)2, dimercaptosuccinic acid dioctyl ester]
[3]
  Percentage of aqueous 210Pb found in chloroform phase, 15 min: 32.2%
  Percentage of aqueous 210Pb found in chloroform phase, 16 h: 41.9%

## O=C([O-])CN(CCN(CC(=O)[O-])CC(=O)[O-])CCN(CC(=O)[O-])CC(=O)[O-].[Ca+2].[Na+].[Na+].[Na+] [Ca DTPA]
[4]
  toxicity after frequent administration: destruction of the epithelial lining and related structures of the intestinal tract followed by death

## CCCCCCCCCCCCSC(C(=O)O)C(S)C(=O)O (centres unmarked) [C12 DMSA, S-Dodecyl dimercaptosuccinic acid]
[5]
  ability to bind Pb in vitro: ability of this molecule to bind Pb is demonstrated in vitro
  partial lipophilic character: partial lipophilic character of this molecule has been established in vitro

## O=C(O)C(S)C(S)C(=O)O (centres unmarked) [DMSA, 2,3dimercaptosuccinic acid]
[2]
  effectiveness in removing lead: effective for reducing blood levels of Pb, but has limited effectiveness in removing lead burdens from other organs, such as liver, brain and bone

## CCCCCCCCN(CCN(CCN(CCN(CC(=O)O)CC(=O)O)CC(=O)O)CC(=O)O)CC(=O)O [C8 TT]
[6]
  % Reduction in liver 241Am (Compared with controls): -30.1 ± 10.0%
  % Reduction in total body 241Am (Before vs after chelon feeding): -39.0 ± 6.3%

## CCCCCCCCCCCCN(CCN(CCN(CCN(CC(=O)O)CC(=O)O)CC(=O)O)CC(=O)O)CC(=O)O [C12 TT, 1-N-Dodecyl-triethylenetetramine pentaacetic acid]
[6]
  % Reduction in liver 241Am (Compared with controls): -57.1 ± 0.1%
  % Reduction in total body 241Am (Before vs after chelon feeding): -46.5 ± 4.0%
[7]
  % Reduction of 241Am, both femora: 17%
  % Reduction of 241Am, carcass: 20%
  % Reduction of 241Am, liver: 71%
  % Reduction of 241Am, whole body: 29%
  % Reduction of 241Am, one kidney: 24%
[8]
  fraction found in carcass: 20%
  fraction found in liver: 3%
  fraction found in lumen and gut section: 73%
  fraction found in viscera: 4%
[9]
  appearance of sera / hemolysis: All sera were slightly pink in appearance
  red cell crenation: No red cell crenation was observed
[10]
  weight gain: 55.7+11.1 g
[11]
  excretion pathway: via the liver, through the bile into the feces
  rate of elimination from the body: less rapidly excreted

## CCCCCCCCCCCCCCCCCCCCCCN(CCN(CCN(CCN(CC(=O)O)CC(=O)O)CC(=O)O)CC(=O)O)CC(=O)O [C22 TT, 1-N-Docosyl-triethylenetetramine pentaacetic acid]
[6]
  % Reduction in liver 241Am (Compared with controls): -47.9 ± 9.1%
  % Reduction in total body 241Am (Before vs after chelon feeding): -45.7 ± 6.1%
[7]
  % Reduction of 241Am, both femora: 32%
  % Reduction of 241Am, carcass: 36%
  % Reduction of 241Am, liver: 89%
  % Reduction of 241Am, whole body: 44%
  % Reduction of 241Am, one kidney: 26%
[12]; p <0.005
  % Reduction of 239Pu, liver: 71.1%
[12]; p <0.01
  % Reduction of 239Pu, spleen: 16.9%
[12]; p <0.375
  % Reduction of 239Pu, femora: 3.5%
  % Reduction of 239Pu, lumbar vertebral bodies: 8.4%
[9]
  appearance of sera / hemolysis: All sera were slightly pink in appearance
  red cell crenation: No red cell crenation was observed
[10]
  weight gain: 70.2+11.6 g
[13]
  solution clarity / micelle formation: micelle formation

## CCCCCCCCCCCCSC(C(=O)OCC)C(S)C(=O)OCC (centres unmarked) [C12 DMS Et2, S-Dodecyl dimercaptosuccinic acid diethyl ester]
[3]
  Percentage of aqueous 210Pb found in chloroform phase, 15 min: 36.5%
  Percentage of aqueous 210Pb found in chloroform phase, 16 h: 62.2%
